For one assay, the system named is SV40-Luc. Briefly: SV40-Luc control luciferase reporter assay, SV 5A8 cell line (SV40-Luc and SV40-R-Luc), control for non-specific inhibitors. The settings on record: SV 5A8 cells derived from SW480, 24 hours of incubation with compound, ratio Firefly/Renilla luciferase. It is filed as cell-based, human. An excerpt: Background cell line: SW480 colorectal carcinoma DNA constructs: […]
(§1) 2) SV40-Luc: SV40 binding site driving Firefly Luciferase in the pGL3 vector—as a control for non-specific inhibitors; and
(§2) 3) SV40-R-Luc: SV40 binding site driving Renilla Luciferase in the pGL3 vector—as an internal control for cell number and toxicity.
This screen uses 3 cell lines derived from SW480 and selected to contain the above luciferase reporters integrated into their chromosomes as follows:
SV 5A8—SV40-Luc and SV40-R-Luc
(§3) Cells: Tcf22C11 and SV5A8 were grown in the presence of 500 μg/ml G418 and Tcf 33.13 was grown in the presence of 500 μg/ml G418+125 μg/ml Zeocin to maintain the integrated reporters. The cells were trypsinized and plated at 1×10^4 cells/well in opaque 96 well plates.
Compounds: 20-24 hours after cell plating, compounds were added at titrated concentrations between […]. The compounds were diluted as follows: The compounds were stored frozen in dimethyl sulfoxide (DMSO) at […]. Compounds were initially titrated in DMSO to make a 1000×DMSO stock solution. Compounds were then diluted 1:25 into media/DMSO (DMEM+10% FBS+9% DMSO). Using the Biomek Multimek, the diluted compounds were mixed well and immediately added to the plated cells in a 1:40 dilution. The final concentration of DMSO in the assay plates was 0.316% DMSO.
(§4) Assay Readout: The luciferase signal was detected using a luciferase detection kit from Promega. Until December 2003, Promega's Dual-Luciferase® Reporter (DLR™) Assay System was used to detect luciferase activity. Briefly, after 24 hours of incubation with compound, culture media was removed by aspiration and 20 ul of passive lysis buffer (Promega) per well was added. The plates were shaken for 15 min. Firefly substrate was then added and the resulting luminescence was immediately read on a CCD camera imaging device or a luminometer. After quantifying the firefly luminescence, the reaction was quenched, and the Renilla luciferase reaction was initiated simultaneously by adding Stop & Glo® Reagent to the same sample. Renilla luciferase was then quantified using the CCD camera or luminometer.
(§5) Promega's Dual-Glo™ Luciferase Assay System can be used for luciferase detection. It was similar to the DLR Assay, however, unlike the DLR which has to be read immediately due to decaying signal, the signal in the Dual-Glo™ Luciferase Assay was stable for up to 2 hours. Briefly, after 24 hours of incubation with compound, culture media was removed by aspiration and 75 ul of fresh medium was added. Add 75 ul of Dual-Glo Luciferase Reagent (Promega) to each well and mix by shaking for 10 minutes on a plate shaker. Then, measure the firefly luminescence on a CCD camera imaging device or a luminometer. After quantifying the firefly luminescence, add 75 ul of Dual-Glo Stop & Glo Reagent (Promega) to each well and mix for 10 minutes. Renilla luciferase was then quantified using the CCD camera or luminometer.
(§6) This assay was meant to confirm primary leads and determine IC50s. Compounds were tested at titrated dilutions. The raw data for this assay was reported in protocol 2463-B. Protocol 2463-C contains the IC50 calculations based on the raw data. The data calculations were done as follows:
(§7) The data was expressed as % of control for both Firefly and Renilla Luciferase. The ratio of FF/Renilla (F/R) was then calculated and averaged between duplicate plates. The data was then plotted using LSW Data Analysis in Microsoft Excel. IC50s were determined by plotting the data in the LSW Data Analysis program using model 33. The IC50s (nM) for all three cell lines were reported.
In general terms: In a reporter assay the amount or activity of a reporter protein is the signal.

For a further assay, the system named is β-catenin/Tcf-4. Briefly: cells. Type of assay: cell-based. The settings on record: 24 hours of incubation with compound, ratio Firefly/Renilla luciferase.
Description: Background cell line: SW480 colorectal carcinoma DNA constructs:
1) Tcf-4-Luc: Tcf-4 binding sites driving Firefly Luciferase in the pGL3 vector—to measure the activity of β-catenin/Tcf-4;
as §1, §2
This screen uses 3 cell lines derived from SW480 and selected to contain the above luciferase reporters integrated into their chromosomes as follows: […]
as §3
The compounds were diluted as follows: The compounds were stored frozen in dimethyl sulfoxide (DMSO) at […]. Compounds were initially titrated in DMSO to make a 1000×DMSO stock solution. Compounds were then diluted 1:25 into media/DMSO (DMEM+10% FBS+9% DMSO). Using the Biomek Multimek, the diluted compounds were mixed well and immediately added to the plated cells in a 1:40 dilution. The final concentration of DMSO in the assay plates was 0.316% DMSO.
as §4
as §5, with “It was similar to the DLR Assay, however, unlike the DLR which has to be read immediately due to decaying signal, the signal in the Dual-Glo™ Luciferase Assay was stable for up to 2 hours.” left out
as §6, §7

Where [1] appears, read: Homo sapiens, SW480, 24 h, Tcf 33.13 cells derived from SW480.
[2] abbreviates: Homo sapiens, Tcf22C11, 24 h, Tcf 22C11 cells derived from SW480.
The mark [3] stands for this setting: Tcf 22C11 cells derived from SW480.
Setting [4] is: Tcf 33.13 cells derived from SW480.

One may read the IC50 as the concentration that gives 50% inhibition. With `CNc1nc(NCc2ccc(NC(=O)c3ccc(OC(F)(F)F)cc3)cc2)c2ccccc2n1` [Example 22, N-[4-({[2-(methylamino)quinazolin-4-yl]amino}methyl)phenyl]-4-(trifluoromethoxy)benzamide], the IC50 in the assay on SV40-Luc (Homo sapiens, SV5A8, 24 h) is over 2670 nM; in the assay on β-catenin/Tcf-4 (setting [1]) it was 1230 nM; in the assay on β-catenin/Tcf-4 (setting [2]) it was 1380 nM.

On to `CNc1nc(NCc2ccc(NC(=O)c3ccc(Cl)nc3)cc2)c2cc(C)cc(C)c2n1` [Example 23, 6-chloro-N-[4-({[6,8-dimethyl-2-(methylamino)quinazolin-4-yl]amino}methyl)phenyl]nicotinamide], for which the IC50 was over 5590 nM with SV40-Luc (Homo sapiens, SV5A8, 24 h); 1720 nM in the assay with β-catenin/Tcf-4 (setting [1]); 1880 nM in the assay with β-catenin/Tcf-4 (setting [2]).

With `CNc1nc(NCc2ccc(NC(=O)c3ccc(C#N)cc3)cc2)c2cc(C)ccc2n1` [Example 25, 4-cyano-N-[4-({[6-methyl-2-(methylamino)quinazolin-4-yl]amino}methyl)phenyl]benzamide], the IC50 is over 5920 nM in the assay with SV40-Luc (Homo sapiens, SV5A8, 24 h); 2960 nM in the assay with β-catenin/Tcf-4 (setting [1]); 2710 nM in the assay with β-catenin/Tcf-4 (setting [2]).

Take `CNc1nc(NCc2ccc(NC(=O)c3ccc(C(F)(F)F)cc3)cc2)c2cc(C)ccc2n1` [Example 27, N-[4-({[6-methyl-2-(methylamino)quinazolin-4-yl]amino}methyl)phenyl]-4-(trifluoromethyl)benzamide]: the IC50 in the assay on SV40-Luc (Homo sapiens, SV5A8, 24 h) was over 5370 nM; with β-catenin/Tcf-4 (setting [1]), 402 nM; with β-catenin/Tcf-4 (setting [2]), 526 nM.

In the case of `CNc1nc(NCc2ccc(NC(=O)c3ccc(F)cc3Cl)cc2)c2cc(C)ccc2n1` [Example 28, 2-chloro-4-fluoro-N-[4-({[6-methyl-2-(methylamino)quinazolin-4-yl]amino}methyl)phenyl]benzamide], the IC50 with SV40-Luc (Homo sapiens, SV5A8, 24 h) is over 1390 nM; with β-catenin/Tcf-4 (setting [1]), 904 nM; with β-catenin/Tcf-4 (setting [2]) it was over 1390 nM.

Regarding `CNc1nc(NCc2ccc(NC(=O)c3ccc(Cl)cc3)cc2)c2cc(C)cc(C)c2n1` [Example 29, 4-chloro-N-[4-({[6,8-dimethyl-2-(methylamino)quinazolin-4-yl]amino}methyl)phenyl]benzamide], the IC50 with SV40-Luc (Homo sapiens, SV5A8, 24 h) is over 2800 nM; in the assay with β-catenin/Tcf-4 (setting [1]) it was 756 nM; in the assay on β-catenin/Tcf-4 (setting [2]), 988 nM.

In the case of `CNc1nc(NCc2ccc(NC(=O)c3ccc(F)cc3)cc2)c2cc(C)cc(C)c2n1` [Example 30, N-[4-({[6,8-dimethyl-2-(methylamino)quinazolin-4-yl]amino}methyl)phenyl]-4-fluorobenzamide], the IC50 with SV40-Luc (Homo sapiens, SV5A8, 24 h) is over 5820 nM; with β-catenin/Tcf-4 (setting [1]), 1870 nM; in the assay with β-catenin/Tcf-4 (setting [2]), 2100 nM.

As to `CNc1nc(NCc2ccc(NC(=O)c3ccc(Cl)nc3)cc2)c2cc(OC)ccc2n1` [Example 31, 6-chloro-N-[4-({[6-methoxy-2-(methylamino)quinazolin-4-yl]amino}methyl)phenyl]nicotinamide], the IC50 was over 22300 nM with SV40-Luc (Homo sapiens, SV5A8, 24 h); 4120 nM in the assay with β-catenin/Tcf-4 (setting [1]); 5950 nM in the assay with β-catenin/Tcf-4 (setting [2]).

With `CNc1nc(NCc2ccc(NC(=O)c3ccc(F)c(F)c3)cc2)c2cc(C)ccc2n1` [Example 32, 3,4-difluoro-N-[4-({[6-methyl-2-(methylamino)quinazolin-4-yl]amino}methyl)phenyl]benzamide], the IC50 with SV40-Luc (Homo sapiens, SV5A8, 24 h) was over 577 nM; in the assay on β-catenin/Tcf-4 (setting [1]), 81 nM; in the assay on β-catenin/Tcf-4 (setting [2]), 100 nM.

Turning to `CNc1nc(NCc2ccc(NC(=O)c3ccc(Cl)cc3)cc2)c2cc(OC)ccc2n1` [Example 33, 4-chloro-N-[4-({[6-methoxy-2-(methylamino)quinazolin-4-yl]amino}methyl)phenyl]benzamide], the IC50 was over 2790 nM in the assay with SV40-Luc (Homo sapiens, SV5A8, 24 h); 1720 nM in the assay on β-catenin/Tcf-4 (setting [1]); 1280 nM with β-catenin/Tcf-4 (setting [2]).

For the compound `CNc1nc(NCc2ccc(NC(=O)c3ccc(F)cc3F)cc2)c2cc(C)ccc2n1` [Example 34, 2,4-difluoro-N-[4-({[6-methyl-2-(methylamino)quinazolin-4-yl]amino}methyl)phenyl]benzamide], the IC50 is over 11500 nM in the assay on SV40-Luc (Homo sapiens, SV5A8, 24 h); 3230 nM in the assay with β-catenin/Tcf-4 (setting [1]); 4190 nM in the assay on β-catenin/Tcf-4 (setting [2]).

Turning to `CNc1nc(NCc2ccc(NC(=O)c3ccc(Cl)cc3F)cc2)c2cc(C)cc(C)c2n1` [Example 35, 4-chloro-N-[4-({[6,8-dimethyl-2-(methylamino)quinazolin-4-yl]amino}methyl)phenyl]-2-fluorobenzamide], the IC50 in the assay with SV40-Luc (Homo sapiens, SV5A8, 24 h) was over 21600 nM; with β-catenin/Tcf-4 (setting [1]), over 21600 nM; with β-catenin/Tcf-4 (setting [2]) it was over 21600 nM.

`Cc1ccc2nc(N(C)C)nc(NCc3ccc(NC(=O)c4ccc(F)c(F)c4)cc3)c2c1` [Example 36, N-[4-({[2-(dimethylamino)-6-methylquinazolin-4-yl]amino}methyl)phenyl]-3,4-difluorobenzamide]: the IC50 with SV40-Luc (Homo sapiens, SV5A8, 24 h) is over 5590 nM; in the assay on β-catenin/Tcf-4 (setting [1]) it was 866 nM; in the assay with β-catenin/Tcf-4 (setting [2]), 1170 nM.

As for `CNc1nc(NCc2ccc(NC(=O)c3ccc(Cl)c(Cl)c3)cc2)c2cc(C)ccc2n1` [Example 37, 3,4-dichloro-N-[4-({[6-methyl-2-(methylamino)quinazolin-4-yl]amino}methyl)phenyl]benzamide], the concentration for half-maximal inhibition (IC50) with SV40-Luc (Homo sapiens, SV5A8, 24 h) was over 21400 nM; in the assay with β-catenin/Tcf-4 (setting [1]), 5280 nM; in the assay on β-catenin/Tcf-4 (setting [2]), over 10700 nM.

As to `Cc1ccc2nc(N(C)C)nc(NCc3ccc(NC(=O)c4ccc(F)cc4)cc3)c2c1` [Example 38, N-[4-({[2-(dimethylamino)-6-methylquinazolin-4-yl]amino}methyl)phenyl]-4-fluorobenzamide], the IC50 in the assay with SV40-Luc (Homo sapiens, SV5A8, 24 h) is over 11600 nM; in the assay on β-catenin/Tcf-4 (setting [3]), 1620 nM; in the assay on β-catenin/Tcf-4 (setting [4]), 2050 nM.

Turning to `Cc1ccc2nc(N(C)C)nc(NCc3ccc(NC(=O)c4ccc(F)cc4)cc3)c2c1` [Example 39, N-[4-({[2-(dimethylamino)-6-methylquinazolin-4-yl]amino}methyl)phenyl]-4-fluorobenzamide], the IC50 was over 5820 nM with SV40-Luc, 428 nM in the assay with β-catenin/Tcf-4 (setting [3]) and 217 nM with β-catenin/Tcf-4 (setting [4]).

As for `Cc1ccc2nc(N(C)C)nc(NCc3ccc(NC(=O)c4ccc(F)cc4)cc3)c2c1` [Example 40, N-[4-({[2-(dimethylamino)-6-methylquinazolin-4-yl]amino}methyl)phenyl]-4-fluorobenzamide], the values for the IC50 in the assay on SV40-Luc, in the assay on β-catenin/Tcf-4 (setting [3]) and in the assay with β-catenin/Tcf-4 (setting [4]) were over 11600 nM, 1620 nM and 2050 nM, respectively.

`CNc1nc(NCc2ccc(NC(=O)c3cc(F)cc(F)c3)cc2)c2cc(C)ccc2n1` [Example 41, 3,5-difluoro-N-[4-({[6-methyl-2-(methylamino)quinazolin-4-yl]amino}methyl)phenyl]benzamide]: the IC50 is over 5770 nM in the assay on SV40-Luc (Homo sapiens, SV5A8, 24 h); 1650 nM with β-catenin/Tcf-4 (setting [1]); 2320 nM in the assay with β-catenin/Tcf-4 (setting [2]).

Values taken from US20090004185A1, “AMINO-SUBSTITUTED QUINAZOLINE DERIVATIVES AS INHIBITORS OF BETA-CATENIN/TCF-4 PATHWAY AND CANCER TREATMENT AGENTS” (WYETH, priority 2007, published 2009).
